# System: anaphylactic asthma in guinea pigs
# Experiment: Antagonistic action on anaphylactic asthma in guinea pigs (prophylactic effect, survival after antigen spraying)
# Assay type: in vivo, guinea pigs (male Hartley-strain)
# Conditions: Cavia porcellus; oral, 30 min before egg-white albumin aerosol; survival for not less than 2 hours; passively sensitized guinea pigs
row,SMILES,ED50 [mg/kg]
1,"CC(=O)Nc1nc(CN2CCC(c3c[nH]c4ccccc34)CC2)cs1 [Compound A, 2-Acetylamino-4-[4-(3-indolyl)piperidinomethyl]thiazole]",0.95
2,"CS(=O)(=O)Nc1nc(CN2CCC(c3c[nH]c4ccccc34)CC2)cs1 [Compound B, 4-[4-(3-Indolyl)piperidinomethyl]-2-mesylaminothiazole]",0.086
3,"CS(=O)(=O)Nc1nc(CCN2CCC(c3c[nH]c4ccccc34)CC2)cs1 [Compound C, 4-[2-[4-(3-Indolyl)piperidino]ethyl]2-mesylaminothiazole]",0.02
4,"CCC(=O)Nc1nc(CN2CCC(c3c[nH]c4ccccc34)CC2)cs1 [Compound D, 4-[4-(3-Indolyl)piperidinomethyl]-2-propionylaminothiazole]",0.92
5,"Nc1nc(CCCN2CCC(c3c[nH]c4ccccc34)CC2)cs1 [Compound F, 4-[3-[4-(3-Indolyl)piperidino]propyl]-2-aminothiazole]",0.3
6,"CS(=O)(=O)Nc1nc(CCCN2CCC(c3c[nH]c4ccccc34)CC2)cs1 [Compound G, 4-[3-[4-(3-Indolyl)piperidino]propyl]-2-mesylaminothiazole]",0.03

# — patent US4742057A, “Antiallergic thiazole compounds” (Fujisawa Pharmaceutical Co., Ltd., priority 1985, dated 1988)
